Reference: patent US20110206786A1, “Acai and Iridoid Based Formulations” (priority 2010, published 2011)

Columns and labels:
E. coli PQ37 [1] = format: cell-based; details: iridoid at 250 ug plus 1.25 ug mL^−1 4NQO; blank = 1
Protocol: The SOS-chromotest in E. coli PQ37 was used to determine the potential for iridoids in noni fruit from French Polynesia to prevent primary DNA damage. E coli PQ37 was incubated at 37° C. in the presence of deacetylasperulosidic acid and asperulosidic acid at a concentration of 250 ug in a 96-well plate. Replicate samples were evaluated. […] Following incubation with the samples, 5-bromo-4-chloro-3-indolyl-β-D-galactopyranoside was added to the wells to detect β-galactosidase enzyme activity, which is induced during SOS repair of damaged DNA. The samples were again incubated for 90 minutes and the absorbances of the samples, blank and positive control were measured at 620 nm with a microplate reader. The β-galactosidase enzyme activity induction factor of each material was calculated by dividing the absorbance of the sample at 620 nm by that of the blank, while also correcting for cell viability.

E. coli PQ37 [2] = experiment: Anti-genotoxicity test (SOS-chromotest with 4NQO); format: cell-based; details: 250 μg mL^−1 iridoid plus 1.25 μg 4NQO, compared with vehicle blank
Protocol: The primary DNA damage test was performed again, similar to the method described above. […] Induction factors were calculated in the same manner as described above.

[3] = Thermal stability of DAA under pasteurization conditions (HPLC); format: physicochemical; details: 90° C. at pH 3.3 for one minute
Protocol: Tahitian noni fruit puree as used in this example is the mashed whole fruit, excluding seeds and pericarp. The fruits were originally collected from the Tahitian Islands. One gram of the puree was diluted with 5 mL of H2O-MeOH (1:1) and mixed thoroughly. The solution was then filtered through a nylon microfilter (0.45-μm pore size); the solution was collected into a 5 mL volumetric flask for HPLC analysis. Four batches of noni puree were analyzed in the experiments. Voucher specimens of the noni fruit puree are deposited in our lab. To test iridoid stability, a DAA solution of 0.5 mg/mL was prepared with MeOH. This solution was heated in a water-bath at 90° C. for 1 min, cooled to room temperature, and analyzed by HPLC.
Noni fruit juice is usually subjected to heat pasteurization during commercial processing. Pasteurization is usually employed in noni industry, i.e., heating up to 87.7° C. for several seconds. In this study, the stability of DAA was conducted. DAA was exposed to 90° C. at pH 3.3 for one minute to determine its thermal stability at acidic conditions.

**Q.** For `CC(=O)OCC1=C[C@H](O)[C@@H]2C(C(=O)O)=CO[C@@H](O[C@@H]3O[C@H](CO)[C@@H](O)[C@H](O)[C@H]3O)[C@H]12` [AA, asperulosidic acid], which “β-galactosidase enzyme activity induction factor (mean±standard deviation)” value (E. coli PQ37 [1]) is on record?
**A.** The value was 1.04±0.01.

**Q.** What about the “induction factors of 4NQO plus DAA or AA” value (E. coli PQ37 [2]) of the same compound?
**A.** The value was “no statistical difference from that of the vehicle blank”.

**Q.** For `O=C(O)C1=CO[C@@H](O[C@@H]2O[C@H](CO)[C@@H](O)[C@H](O)[C@H]2O)[C@@H]2C(CO)=C[C@H](O)[C@H]12` [DAA, deacetylasperulosidic acid], which “β-galactosidase enzyme activity induction factor (mean±standard deviation)” value (E. coli PQ37 [1]) is on record?
**A.** Its value is 0.98±0.02.

**Q.** What about the “induction factors of 4NQO plus DAA or AA” value (E. coli PQ37 [2]) of the same compound?
**A.** Its value is “no statistical difference from that of the vehicle blank”.

**Q.** And the “thermal stability (DAA contents before and after heating)” value [3]?
**A.** Its value is “no difference in the DAA contents before and after heating”.
